In general, inhibition refers to the change of the read-out against control, counted positive when it falls.

Common to all, as to conditions: at 1 µM
Test [1] deals with T1, Serine/threonine-protein kinase TBK1 (Homo sapiens) (UniProt Q9UHD2).
T1 sequence (whole entry): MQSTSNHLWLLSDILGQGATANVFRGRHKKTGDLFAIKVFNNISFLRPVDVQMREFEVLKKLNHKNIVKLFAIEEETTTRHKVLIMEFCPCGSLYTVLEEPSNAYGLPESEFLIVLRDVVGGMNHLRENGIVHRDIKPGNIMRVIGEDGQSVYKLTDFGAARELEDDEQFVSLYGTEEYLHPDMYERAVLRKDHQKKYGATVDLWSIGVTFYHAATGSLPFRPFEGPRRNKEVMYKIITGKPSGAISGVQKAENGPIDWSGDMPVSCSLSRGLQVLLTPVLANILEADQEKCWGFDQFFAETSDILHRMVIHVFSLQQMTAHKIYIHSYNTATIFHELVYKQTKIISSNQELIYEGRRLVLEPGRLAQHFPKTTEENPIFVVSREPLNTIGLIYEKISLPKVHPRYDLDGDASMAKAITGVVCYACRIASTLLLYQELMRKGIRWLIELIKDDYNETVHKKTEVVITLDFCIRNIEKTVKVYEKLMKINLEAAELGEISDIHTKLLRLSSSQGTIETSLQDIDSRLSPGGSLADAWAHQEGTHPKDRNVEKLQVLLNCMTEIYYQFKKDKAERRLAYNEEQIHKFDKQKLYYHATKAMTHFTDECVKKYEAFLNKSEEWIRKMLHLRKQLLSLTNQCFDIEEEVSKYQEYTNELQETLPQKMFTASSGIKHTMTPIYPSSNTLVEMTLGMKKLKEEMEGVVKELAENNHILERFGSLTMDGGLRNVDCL

Test [2] has as its target T2, Inhibitor of nuclear factor kappa-B kinase subunit epsilon (Homo sapiens) (UniProt Q14164).
T2 sequence (whole entry): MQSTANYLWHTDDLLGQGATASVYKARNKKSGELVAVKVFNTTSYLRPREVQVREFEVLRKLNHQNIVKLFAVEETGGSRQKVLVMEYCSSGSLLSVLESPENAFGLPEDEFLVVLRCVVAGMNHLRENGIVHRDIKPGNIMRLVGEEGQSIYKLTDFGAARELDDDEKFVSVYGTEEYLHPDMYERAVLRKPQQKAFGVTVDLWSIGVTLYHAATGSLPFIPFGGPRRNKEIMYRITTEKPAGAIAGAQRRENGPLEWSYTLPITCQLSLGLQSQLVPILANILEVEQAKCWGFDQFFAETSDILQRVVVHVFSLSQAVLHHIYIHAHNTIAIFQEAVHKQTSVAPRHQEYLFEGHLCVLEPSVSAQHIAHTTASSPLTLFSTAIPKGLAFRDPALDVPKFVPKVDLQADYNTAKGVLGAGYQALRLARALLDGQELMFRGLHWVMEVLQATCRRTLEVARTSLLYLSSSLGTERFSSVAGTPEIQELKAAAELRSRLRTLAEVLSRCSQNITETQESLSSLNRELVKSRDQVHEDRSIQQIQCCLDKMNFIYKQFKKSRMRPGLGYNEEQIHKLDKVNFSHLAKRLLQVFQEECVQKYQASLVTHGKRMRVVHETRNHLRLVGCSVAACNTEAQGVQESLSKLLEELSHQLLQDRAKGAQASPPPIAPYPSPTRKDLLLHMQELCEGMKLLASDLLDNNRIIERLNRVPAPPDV

Test [3] concerns the target T3, Inhibitor of nuclear factor kappa-B kinase subunit alpha (Homo sapiens) (UniProt O15111).
T3 sequence (whole entry): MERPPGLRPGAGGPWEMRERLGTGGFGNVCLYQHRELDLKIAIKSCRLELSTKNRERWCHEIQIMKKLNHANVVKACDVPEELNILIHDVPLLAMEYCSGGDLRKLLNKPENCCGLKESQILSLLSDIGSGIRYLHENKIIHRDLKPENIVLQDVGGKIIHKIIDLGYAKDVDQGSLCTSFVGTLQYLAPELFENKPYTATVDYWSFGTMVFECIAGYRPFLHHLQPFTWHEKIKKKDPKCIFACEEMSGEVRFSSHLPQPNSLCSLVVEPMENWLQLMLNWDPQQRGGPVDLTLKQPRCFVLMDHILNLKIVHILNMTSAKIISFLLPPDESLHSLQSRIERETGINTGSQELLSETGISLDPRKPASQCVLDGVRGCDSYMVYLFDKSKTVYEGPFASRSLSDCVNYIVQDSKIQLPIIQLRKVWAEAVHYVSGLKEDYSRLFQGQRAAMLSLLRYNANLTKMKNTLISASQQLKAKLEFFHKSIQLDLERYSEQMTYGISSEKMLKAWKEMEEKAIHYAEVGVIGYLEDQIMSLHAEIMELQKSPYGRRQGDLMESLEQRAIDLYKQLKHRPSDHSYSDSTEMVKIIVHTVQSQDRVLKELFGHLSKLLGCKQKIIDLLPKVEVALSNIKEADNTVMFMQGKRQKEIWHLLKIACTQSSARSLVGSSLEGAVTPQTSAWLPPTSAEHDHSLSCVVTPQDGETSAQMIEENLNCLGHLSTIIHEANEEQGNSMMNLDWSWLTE

The target of test [4] is T4, Inhibitor of nuclear factor kappa-B kinase subunit beta (Homo sapiens) (UniProt O14920).
T4 sequence (whole entry): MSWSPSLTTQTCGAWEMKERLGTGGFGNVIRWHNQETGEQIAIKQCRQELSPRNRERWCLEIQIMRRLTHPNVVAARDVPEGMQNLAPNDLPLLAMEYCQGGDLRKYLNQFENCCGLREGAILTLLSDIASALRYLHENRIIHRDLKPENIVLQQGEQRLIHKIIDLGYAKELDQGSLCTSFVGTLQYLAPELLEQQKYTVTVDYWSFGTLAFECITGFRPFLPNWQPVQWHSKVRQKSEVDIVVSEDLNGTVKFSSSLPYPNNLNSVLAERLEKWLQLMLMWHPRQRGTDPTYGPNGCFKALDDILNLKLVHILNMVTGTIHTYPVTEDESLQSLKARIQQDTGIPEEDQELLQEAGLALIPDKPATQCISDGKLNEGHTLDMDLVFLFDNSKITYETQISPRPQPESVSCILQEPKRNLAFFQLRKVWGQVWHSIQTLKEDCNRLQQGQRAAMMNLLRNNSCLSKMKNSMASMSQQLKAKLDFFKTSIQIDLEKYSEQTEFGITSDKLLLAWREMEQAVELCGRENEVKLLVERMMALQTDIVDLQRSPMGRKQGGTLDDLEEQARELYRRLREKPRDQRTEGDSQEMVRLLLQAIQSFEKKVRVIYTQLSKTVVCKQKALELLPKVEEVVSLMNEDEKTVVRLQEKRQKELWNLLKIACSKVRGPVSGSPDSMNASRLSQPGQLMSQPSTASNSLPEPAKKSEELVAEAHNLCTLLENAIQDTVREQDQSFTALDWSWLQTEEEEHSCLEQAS

Where “and” joins values, the source holds several entries; their conditions need not be identical. Equal values may be shown once.

In the case of `Cc1ccc(O)cc1Nc1ccnc2cc(-c3ccccn3)ccc12`, the inhibition is 2% and 1% in test [1]; 1% in test [2]; 6% and 4% in test [3]; 0% and -5% in test [4].
Take `Cc1nnc(-c2cccc(-c3ccc(C(=O)NCC4CC4)cc3)c2)o1`: the inhibition in test [1] was -1% and -2%; in test [2] it was -1%; in test [3], 3% and 4%; in test [4], -4%.
Regarding `Cc1cc(Cl)cc2c1NC(=O)C2=NNc1ccc(S(N)(=O)=O)cc1`, the inhibition is 29% and 26% in test [1]; 4% in test [2]; 11% in test [3]; -6% and -1% in test [4].
Turning to `c1cnn2ncc(-c3ccnc(Nc4ccc5c(c4)OCCO5)n3)c2c1`, the inhibition in test [1] is 29% and 33%; in test [2] it was 23% and 21%; in test [3] it was 0% and -2%; in test [4], -4%.
For `NS(=O)(=O)c1ccc(N/N=C2\C(=O)Nc3ccc4ncccc4c32)cc1`, the inhibition was 76% and 77% in test [1]; 55% in test [2]; 4% and -7% in test [3]; -9% and -6% in test [4].
`Oc1cccc(-c2nc(-c3ccccc3)[nH]c2-c2ccncc2)c1`: the inhibition in test [1] was -1%; in test [2] it was -1% and -3%; in test [3], 2%; in test [4], 1% and 0%.
Turning to `CC1=C(C(=O)Nc2ccc3[nH]ncc3c2)C(c2ccc3ccccc3c2)CC(=O)N1` (stereo not drawn), the inhibition was -2% and -5% in test [1]; 0% and -3% in test [2]; 0% and 11% in test [3]; -3% in test [4].
For the compound `Fc1ccc(-c2ncn(C3CCNCC3)c2-c2ccnc(Oc3ccc4c(c3)OCO4)n2)cc1`, the inhibition in test [1] was -3% and -5%; in test [2], -2% and 2%; in test [3], -2% and 0%; in test [4], -2% and -3%.
On to `CS(=O)(=O)Nc1ccc(N/C=C2\C(=O)Nc3ccccc32)cc1`, for which the inhibition in test [1] is 29% and 20%; in test [2], 25% and 24%; in test [3], 4% and 0%; in test [4], -1% and -4%.
In the case of `OCCCNc1nccc(-c2c(-c3ccc(F)cc3)nn3cc(C(F)(F)F)ccc23)n1`, the inhibition is -2% and -5% in test [1]; -3% and 0% in test [2]; 2% in test [3]; -4% and -5% in test [4].
With `COc1ccc(-c2oc3ncnc(N)c3c2-c2ccc(NC(=O)Nc3cc(C(F)(F)F)ccc3F)cc2)cc1`, the inhibition in test [1] is -3% and -1%; in test [2] it was 9% and 10%; in test [3], 2% and 1%; in test [4], -8% and -6%.
Regarding `Nc1nc(-c2ccc(F)cc2)c(-c2ccc3ncccc3n2)s1`, the inhibition was 4% and 1% in test [1]; 0% and 1% in test [2]; 0% and 1% in test [3]; -3% and -1% in test [4].
Consider `CN(C)CCNC(=O)Nc1ccc(N(C)c2ccnc(Nc3ccc(CS(C)(=O)=O)cc3)n2)cc1`, for which the inhibition is -2% and -4% in test [1]; 1% in test [2]; 1% in test [3]; -1% and -5% in test [4].
`COc1ccc(-c2nn3ncccc3c2-c2ccnc(Nc3ccc4c(c3)OCCO4)n2)cc1`: the inhibition in test [1] was 1% and 0%; in test [2], 1%; in test [3] it was 1%; in test [4] it was -4%.
Turning to `Fc1ccc(-c2ncn(C3CCNCC3)c2-c2ccnc(Oc3ccccc3)n2)cc1`, the inhibition in test [1] was 0% and 3%; in test [2] it was -1% and -2%; in test [3], 3% and 2%; in test [4], -2%.
Take `NS(=O)(=O)c1ccc(N/N=C2\C(=O)Nc3ccc(Cl)cc32)cc1`: the inhibition was 5% and 4% in test [1]; 2% and 1% in test [2]; 2% in test [3]; -3% and -5% in test [4].
In the case of `O=C1Nc2ccc(-c3cccnc3)cc2C1=Cc1cc(Br)c(O)c(Br)c1`, the inhibition in test [1] was 40% and 43%; in test [2], 37% and 39%; in test [3], 16% and 2%; in test [4] it was -5% and -4%.

These data come from ChEMBL document CHEMBL2007661, “Compounds: GSK PKIS; Assays: UNC Frye lab” (2012).
